Source: article PMC4992173, “Divergent synthesis and identification of the cellular targets of deoxyelephantopins” (Nature Communications, 2016)

Test system: Caco-2 cells
Assay: In situ global proteomics profiling of Caco-2 cells (LC-MS/MS, LFQ)
Format: cell-based, human
Conditions: for Log2 20 µM DEP/DMSO: LFQ
Protocol: Figure 7 Identification of PPARγ as target of deoxyelephantopin and screening of DEP derivatives as PPARγ antagonists. (a) Quantification of endogenous PPARγ enriched from Caco-2 cells using 10 μM 24c following in situ treatment with DEP (20 μM) or DMSO (normalized LFQ values±s.d. are shown; n=6). (b) Changes in expression levels of five PPARγ-dependent proteins following 24 h treatment of Caco-2 cells with DMSO, rosiglitazone (10 μM), T0070907 (50 μM) or DEP (20 μM; LFQ ratios±s.d. are shown; n=3). **P<0.005 and ***P<0.0005 by two-sided Student's t-test. (c) Gel-based competitive screening of DEP and analogues as PPARγ antagonists against recombinant human enzyme (top). hPPARγ was treated with each compound (20 μM) for 1 h followed by treatment with 24c-Cy3 (10 μM) as probe. Quantification of fluorescence intensity in the competitive screening for PPARγ antagonists (bottom; values±s.d. are shown; n=3).
Caco-2 cells were treated with DMSO, PPARγ agonist rosiglitazone, antagonist T0070907 or DEP for 24 h, the cells were collected and the proteomes were comparatively analysed by LC–MS/MS. […] Furthermore, the list of 43 dysregulated proteins was analysed and classified using the GOrilla pathway analysis tool (Supplementary Fig. 15). […]
In situ global proteomics profiling using LC-MS/MS. Caco- ’ cells/mL) in a 6-well plate, allowed to grow to confluence and to differentiate for 28 days. The wells were washed one time with PBS and treated with either DMSO, 10 µM rosiglitazone, 50 µM T0070907 or 20 µM DEP for 24 hours. Cells were washed two times with PBS and lysates were prepared. Samples (30 µg) were denatured with 6 M urea in 50 mM NH4HCO3, reduced […]
dark. Samples were diluted to 2 M urea with 50 mM NH4HCO3, and digested with trypsin ([…] for 12 hours at 37 °C. Samples were acidified to a final concentration of 5% acetic acid, desalted over a self-packed C18 spin column and […]
dried. […]
LC-MS/MS analysis. Peptides were resuspended in water with 0.1% formic acid (FA) and analyzed using Proxeon EASY-nLC 1000 nano-UHPLC coupled to QExactive Plus Quadrupole-Orbitrap mass spectrometer (Thermo Scientific). The chromatography column […]
H2O (Buffer A) and 0.1% FA in MeCN (Buffer B). Peptides were eluted into the mass spectrometer at a flow rate of 300 nL/min. over a 240 min. linear gradient (3-35% Buffer B) at 50 °C. Data was acquired in data-dependent mode (top- N = ’ […]
and isotope exclusion was enabled.
MaxQuant analysis. The MS data was analyzed with MaxQuant (V1.5.2.8) and searched against the human proteome (Uniprot, 89,649 entries) and a common list of contaminants (included in MaxQuant). The first peptide search tolerance was set to 20 ppm, 10 ppm was used for the main peptide search and fragment mass tolerance was set to 0.02 Da. The false discovery rate for peptides, proteins and sites identification was set to 1%. The minimum peptide length was set to 6 amino acids and peptide re-quantification, label-free quantification (MaxLFQ) and “ ” were enabled. The minimal number of peptides per protein was set to two. Oxidized methionines and N-terminal acetylation were searched as variable modifications and carbamidomethylation of cysteines was searched as a fixed modification. For SILAC experiments 13C6 L-lysine and 13C6 15N4 L-arginine were set as heavy isotope labels and 12C6 L-lysine and 12C6 14N4 L-arginine as light isotope labels.
19 d k g h ARγ. 19a was covalently docked to the crystal structure of human γ ZU 190 using the GOLD suite (V5.3, CCDC). The default GOLD fitness function was used to determine the best binding configuration. The distance for hydrogen bonding was set to 3 Å.
IAA competition of 23c, 24c and DEP h ARγ. γ
(500 ng in 9 µL PBS) was treated with either 100 µM DEP, 23c, 24c or DMSO (1 µL of 10x stock in DMSO) for one hour. Samples were denatured with 6 M urea in 50 mM NH4HCO3, […]
in the dark. Samples were diluted to 2 M urea with 50 mM NH4HCO3, and digested with trypsin […]

## C=C(C)C(=O)O[C@H]1CC2=C[C@@H](C/C(C)=C/[C@H]3OC(=O)C(=C)[C@H]13)OC2=O [deoxyelephantopin]
20 µM, 24 h, compared with rosiglitazone and T0070907
  mode of action on PPARγ in cells: antagonist of PPARγ
Protein ALDH3B1, 24 h
  Log2 20 µM DEP/DMSO: -0.67
Protein ARHGAP17, 24 h
  Log2 20 µM DEP/DMSO: -0.97
Protein ARMCX3, 24 h
  Log2 20 µM DEP/DMSO: -0.92
Protein COL4A3BP, 24 h
  Log2 20 µM DEP/DMSO: -0.76
Protein CROT, 24 h
  Log2 20 µM DEP/DMSO: -0.68
Protein CTBP2, 24 h
  Log2 20 µM DEP/DMSO: 0.72
Protein DDX21, 24 h
  Log2 20 µM DEP/DMSO: 0.82
Protein FNTA, 24 h
  Log2 20 µM DEP/DMSO: -0.62
Protein GID8, 24 h
  Log2 20 µM DEP/DMSO: 0.68
Protein GIPC2, 24 h
  Log2 20 µM DEP/DMSO: -0.69
Protein GIT2, 24 h
  Log2 20 µM DEP/DMSO: -0.92
Protein GSTA1, 24 h
  Log2 20 µM DEP/DMSO: -0.81
Protein GSTA2, 24 h
  Log2 20 µM DEP/DMSO: -0.87
Protein GSTM3, 24 h
  Log2 20 µM DEP/DMSO: -0.84
Protein HIGD1A, 24 h
  Log2 20 µM DEP/DMSO: 0.69
Protein IREB2, 24 h
  Log2 20 µM DEP/DMSO: 0.65
Protein ITGB4, 24 h
  Log2 20 µM DEP/DMSO: 0.92
Protein LDHD, 24 h
  Log2 20 µM DEP/DMSO: -0.60
Protein LDLR, 24 h
  Log2 20 µM DEP/DMSO: 1.72
Protein LIPA, 24 h
  Log2 20 µM DEP/DMSO: -0.68
Protein MARCH5, 24 h
  Log2 20 µM DEP/DMSO: 1.85
Protein MGMT, 24 h
  Log2 20 µM DEP/DMSO: -0.81
Protein MYO15B, 24 h
  Log2 20 µM DEP/DMSO: -1.00
Protein NOP9, 24 h
  Log2 20 µM DEP/DMSO: 1.57
Protein OAS1, 24 h
  Log2 20 µM DEP/DMSO: 1.10
Protein OGDHL, 24 h
  Log2 20 µM DEP/DMSO: -0.98
Protein PANK4, 24 h
  Log2 20 µM DEP/DMSO: -0.81
Protein PHPT1, 24 h
  Log2 20 µM DEP/DMSO: -0.79
Protein PSIP1, 24 h
  Log2 20 µM DEP/DMSO: 0.76
Protein RAB5B, 24 h
  Log2 20 µM DEP/DMSO: 0.79
Protein RBP4, 24 h
  Log2 20 µM DEP/DMSO: -1.03
Protein RRS1, 24 h
  Log2 20 µM DEP/DMSO: 0.65
Protein SAMHD1, 24 h
  Log2 20 µM DEP/DMSO: -0.97
Protein SCAMP3, 24 h
  Log2 20 µM DEP/DMSO: 0.63
Protein SETDB1, 24 h
  Log2 20 µM DEP/DMSO: 0.81
Protein SLC26A3, 24 h
  Log2 20 µM DEP/DMSO: -0.98
Protein SLC39A14, 24 h
  Log2 20 µM DEP/DMSO: -0.74
Protein STK4, 24 h
  Log2 20 µM DEP/DMSO: -0.74
Protein SURF6, 24 h
  Log2 20 µM DEP/DMSO: 1.30
Protein TGOLN2, 24 h
  Log2 20 µM DEP/DMSO: 1.03
Protein TPD52L1, 24 h
  Log2 20 µM DEP/DMSO: -0.71
Protein TTR, 24 h
  Log2 20 µM DEP/DMSO: -0.97
Protein VPS52, 24 h
  Log2 20 µM DEP/DMSO: 0.63
